In article PMC2095803 (Nucleic Acids Research, 2007):
Changes are numbered by the printed parent chain.

How the values were obtained:
Test in all cases: PEP
[1] = target: T1, Therminator II DNA polymerase (Thermococcus sp., UniProt Q56366, A485L/D141A/E143A/Y409V); format: biochemical, Thermococcus species 9ºN-7
T1 sequence (Q56366 1-775 D141A/E143A/Y409V/A485L): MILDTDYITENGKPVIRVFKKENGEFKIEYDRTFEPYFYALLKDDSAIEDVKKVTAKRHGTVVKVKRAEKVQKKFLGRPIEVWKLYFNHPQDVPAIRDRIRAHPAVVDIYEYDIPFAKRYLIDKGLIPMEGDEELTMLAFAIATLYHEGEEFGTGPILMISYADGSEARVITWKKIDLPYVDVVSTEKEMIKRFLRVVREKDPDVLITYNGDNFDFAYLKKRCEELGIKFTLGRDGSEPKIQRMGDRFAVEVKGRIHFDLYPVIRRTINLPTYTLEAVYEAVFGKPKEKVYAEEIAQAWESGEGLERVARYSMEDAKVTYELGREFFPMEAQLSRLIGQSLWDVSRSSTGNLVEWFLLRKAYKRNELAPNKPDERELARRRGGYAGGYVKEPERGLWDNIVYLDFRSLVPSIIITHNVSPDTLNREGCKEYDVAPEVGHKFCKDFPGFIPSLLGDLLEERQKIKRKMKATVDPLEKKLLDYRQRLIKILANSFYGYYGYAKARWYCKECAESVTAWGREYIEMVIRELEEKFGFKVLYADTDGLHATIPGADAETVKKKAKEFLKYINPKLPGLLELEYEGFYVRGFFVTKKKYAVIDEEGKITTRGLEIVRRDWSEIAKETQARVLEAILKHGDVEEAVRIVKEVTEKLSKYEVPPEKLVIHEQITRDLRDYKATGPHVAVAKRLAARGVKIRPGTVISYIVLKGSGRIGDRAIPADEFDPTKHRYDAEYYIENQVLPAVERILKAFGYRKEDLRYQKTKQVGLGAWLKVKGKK

[2] = target: AmpliTaqFS DNA polymerase (Thermus aquaticus, UniProt P19821, F667Y/G46D); format: biochemical, Thermus aquaticus YT-1
[3] = target: T2, Bst DNA polymerase (Geobacillus stearothermophilus, UniProt P52026); format: biochemical, Bacillus stearothermophilus
T2 sequence (P52026 289-876 limits assumed): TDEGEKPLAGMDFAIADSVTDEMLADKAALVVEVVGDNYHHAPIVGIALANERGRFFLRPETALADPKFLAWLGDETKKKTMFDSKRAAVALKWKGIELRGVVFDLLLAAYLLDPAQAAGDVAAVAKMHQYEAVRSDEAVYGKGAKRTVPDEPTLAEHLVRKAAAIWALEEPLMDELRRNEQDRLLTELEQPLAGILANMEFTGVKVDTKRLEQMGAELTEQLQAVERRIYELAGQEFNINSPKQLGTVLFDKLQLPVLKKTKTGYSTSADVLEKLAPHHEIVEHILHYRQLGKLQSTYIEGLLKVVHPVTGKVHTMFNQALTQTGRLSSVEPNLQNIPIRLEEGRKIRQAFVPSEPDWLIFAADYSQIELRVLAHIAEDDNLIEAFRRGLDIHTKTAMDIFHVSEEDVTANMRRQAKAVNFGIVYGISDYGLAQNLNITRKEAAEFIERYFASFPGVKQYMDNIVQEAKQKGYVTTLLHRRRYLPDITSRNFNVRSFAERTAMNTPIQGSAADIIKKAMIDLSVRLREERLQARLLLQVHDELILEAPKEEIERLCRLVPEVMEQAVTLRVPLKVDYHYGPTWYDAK

[4] = target: T3, Therminator DNA polymerase (Thermococcus sp., UniProt Q56366, A485L/D141A/E143A); format: biochemical, Thermococcus species 9ºN-7
T3 sequence (Q56366 1-775 D141A/E143A/A485L): T1 sequence (Q56366 1-775 D141A/E143A/Y409V/A485L) with V409Y

[5] = Therminator II, ratio of IC50 values
[6] = AmpliTaqFS, ratio of IC50 values
[7] = Therminator, ratio of IC50 values

Chain of AmpliTaqFS DNA polymerase (P19821 whole entry G46D/F667Y): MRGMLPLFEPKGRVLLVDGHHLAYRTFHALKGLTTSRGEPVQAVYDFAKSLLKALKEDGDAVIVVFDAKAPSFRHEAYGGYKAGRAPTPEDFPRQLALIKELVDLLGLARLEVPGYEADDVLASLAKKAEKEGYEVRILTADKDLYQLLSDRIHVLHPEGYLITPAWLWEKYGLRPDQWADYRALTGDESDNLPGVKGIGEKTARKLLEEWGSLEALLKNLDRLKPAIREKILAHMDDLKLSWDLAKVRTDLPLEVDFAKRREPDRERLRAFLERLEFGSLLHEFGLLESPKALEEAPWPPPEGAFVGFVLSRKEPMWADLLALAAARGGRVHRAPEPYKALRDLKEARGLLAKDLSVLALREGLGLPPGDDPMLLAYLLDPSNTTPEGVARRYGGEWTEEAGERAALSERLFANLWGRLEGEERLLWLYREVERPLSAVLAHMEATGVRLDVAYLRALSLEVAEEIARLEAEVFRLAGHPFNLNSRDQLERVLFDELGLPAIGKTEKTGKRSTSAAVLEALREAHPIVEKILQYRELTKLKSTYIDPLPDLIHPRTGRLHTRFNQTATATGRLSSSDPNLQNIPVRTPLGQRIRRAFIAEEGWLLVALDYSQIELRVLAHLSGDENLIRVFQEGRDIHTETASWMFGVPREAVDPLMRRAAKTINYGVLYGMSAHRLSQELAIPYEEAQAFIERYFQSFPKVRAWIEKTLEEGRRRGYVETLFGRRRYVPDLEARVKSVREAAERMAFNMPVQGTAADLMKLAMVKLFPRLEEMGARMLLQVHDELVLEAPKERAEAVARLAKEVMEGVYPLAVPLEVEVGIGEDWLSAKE

SMILES | Incorporation bias Cpd IIIc/dATP [1, 5] | Incorporation bias Cpd IIIc/ddATP [1, 5] | Incorporation bias Cpd IIIc/dATP [2, 6] | Incorporation bias Cpd IIIc/ddATP [2, 6] | Incorporation bias Cpd IIIc/dATP ([3]; Bst, ratio of IC50 values) | Incorporation bias Cpd IIIc/ddATP ([3]; Bst, ratio of IC50 values) | Incorporation bias Cpd IIIc/dATP [4, 7] | Incorporation bias Cpd IIIc/ddATP [4, 7] | IC50 [1] [nM] | Incorporation bias ddATP/dATP [1, 5] | IC50 [2] [nM] | Incorporation bias ddATP/dATP [2, 6] | IC50 [3] [nM] | Incorporation bias ddATP/dATP ([3]; Bst, ratio of IC50 values) | IC50 [4] [nM] | Incorporation bias ddATP/dATP [4, 7]
O=[N+]([O-])c1ccccc1CNc1ncnc2c1ncn2[C@H]1C[C@H](O)[C@@H](COP(=O)(O)OP(=O)(O)OP(=O)(O)O)O1 [Compound IIIc, N^6-(2-Nitrobenzyl)-2’-deoxyadenosine-5’-triphosphate] | 1.8 | 0.034 | 170 | 270 | 18 | 0.057 | 1.3 | 0.32 | – | – | – | – | – | – | – | –
Nc1ncnc2c1ncn2[C@H]1CC[C@@H](COP(=O)(O)OP(=O)(O)OP(=O)(O)O)O1 [ddATP, 2′,3′-dideoxyadenosine triphosphate, reference compound] | – | – | – | – | – | – | – | – | 230 ± 30 | 52 | 3.3 ± 0.1 | 0.62 | 370 ± 30 | 310 | 9.7 ± 1.1 | 4.2
